≈ marks a conversion by molar mass, not a printed value.
Experiments:
[1] = Binding affinity to D-Ala-D-Ala assessed as dissociation constant
Neisseria gonorrhoeae = test: Antibacterial activity against Neisseria gonorrhoeae ATCC 49226 assessed as reduction in bacterial growth; assay type: functional
Staphylococcus aureus [2] = test: Antibacterial activity against methicillin-Staphylococcus aureus ATCC 43300 assessed as reduction in bacterial growth measured after 24 hrs by broth microdilution method; assay type: functional
[3] = Inhibition of Bordetella pertussis Adenylate cyclase toxin
Acinetobacter baumannii [4] = test: Antibacterial activity against Acinetobacter baumannii assessed as reduction in bacterial growth by Mueller-Hinton broth microdilution method; assay type: functional, organism-based
Staphylococcus aureus [5] = test: Antibacterial activity against methicillin-resistant Staphylococcus aureus assessed as reduction in bacterial cell growth incubated for 24 hrs by broth microdilution method; assay type: functional
[6] = Binding affinity to Escherichia coli ThiM TPP riboswitch assessed as dissociation constant
[7] = Inhibition of GIM1 (unknown origin)
Candida albicans [8] = test: Antifungal activity against Candida albicans ATCC 28367 assessed as reduction in fungal growth incubated for 24 hrs by CLSI based analysis; assay type: functional
Nakaseomyces glabratus = test: Antifungal activity against Candida glabrata ATCC 15126 assessed as reduction in fungal growth incubated for 24 hrs by CLSI based analysis; assay type: functional
Staphylococcus aureus [9] = test: Antibacterial activity against Staphylococcus aureus ATCC 25923 assessed as reduction in microbial growth after 24 hrs by two-fold serial dilution method; assay type: functional
Bacillus subtilis [10] = test: Antibacterial activity against Bacillus subtilis ATCC 6633 assessed as reduction in microbial growth after 24 hrs by two-fold serial dilution method; assay type: functional
Escherichia coli [11] = test: Antibacterial activity against Escherichia coli JW 1772 assessed as reduction in microbial growth after 24 hrs by two-fold serial dilution method; assay type: functional
Salmonella typhimurium = test: Antibacterial activity against Salmonella typhimurium DT104 ATCC 14028 assessed as reduction in microbial growth measured after 24 hrs by CLSI-based method; assay type: functional, Salmonella enterica subsp. enterica serovar Typhimurium; details: Salmonella enterica
Staphylococcus aureus [12] = test: Bactericidal activity against Staphylococcus aureus ATCC 25923 assessed as reduction in bacterial cell growth incubated for 24 hrs by CLSI-based analysis; assay type: functional
Bacillus subtilis [13] = test: Antibacterial activity against Bacillus subtilis ATCC 6633 assessed as minimum bactericidal concentration incubated for 24 hrs; assay type: functional
Escherichia coli [14] = test: Antibacterial activity against Escherichia coli assessed as minimum bactericidal concentration incubated for 24 hrs; assay type: functional
Enterococcus durans = test: Antibacterial activity against Enterococcus durans assessed as reduction in bacterial growth; assay type: functional
Bacillus subtilis [15] = test: Antibacterial activity against Bacillus subtilis assessed as reduction in bacterial growth; assay type: functional
Escherichia coli [16] = test: Antibacterial activity against Escherichia coli assessed as reduction in bacterial growth; assay type: functional
Pseudomonas aeruginosa [17] = test: Antibacterial activity against Pseudomonas aeruginosa assessed as reduction in bacterial growth; assay type: functional
Plasmodium falciparum = test: Antiplasmodial activity against Plasmodium falciparum assessed as parasitic growth inhibition; assay type: functional, organism-based
Klebsiella pneumoniae [18] = test: Antibacterial activity against carbapenem resistance Klebsiella pneumoniae ATCC BAA-1705 assessed as inhibition of microbial growth measured after 24 hrs by microplate reader analysis; assay type: functional
Escherichia coli [19] = test: Antibacterial activity against Escherichia coli ATCC 8730 assessed as reduction in bacterial cell growth measured after 24 hrs by microplate reader based analysis; assay type: functional
Staphylococcus aureus [20] = test: Antibacterial activity against methicillin-resistant Staphylococcus aureus assessed as inhibition of cell growth; assay type: functional
Enterococcus faecium = test: Antibacterial activity against Enterococcus faecium assessed as bacterial growth inhibition; assay type: functional
Enterococcus faecalis [21] = test: Antibacterial activity against Enterococcus faecalis assessed as bacterial growth inhibition; assay type: functional
Escherichia coli [22] = test: Antibacterial activity against Escherichia coli assessed as reduction in bacterial growth measured after 24 hrs by CLSI-based Mueller-Hinton broth dilution method; assay type: functional
Enterococcus faecalis [23] = test: Antibacterial activity against Enterococcus faecalis assessed as inhibition of bacterial growth measured after 24 hrs by CLSI-based microdilution method; assay type: functional
Staphylococcus aureus [24] = test: Antibacterial activity against Staphylococcus aureus assessed as inhibition of bacterial growth measured after 24 hrs by CLSI-based microdilution method; assay type: functional
Klebsiella pneumoniae [25] = test: Antibacterial activity against Klebsiella pneumonia assessed as inhibition of bacterial growth measured after 24 hrs by CLSI-based microdilution method; assay type: functional
Pseudomonas aeruginosa [26] = test: Antibacterial activity against Pseudomonas aeruginosa assessed as inhibition of bacterial growth measured after 24 hrs by CLSI-based microdilution method; assay type: functional
Acinetobacter baumannii [27] = test: Antibacterial activity against Acinetobacter baumannii assessed as reduction in bacterial growth measured after 24 hrs by Mueller-Hinton broth dilution method; assay type: functional
[28] = Binding affinity to Sporosarcina pasteurii Urease assessed as inhibition constant
Escherichia coli [29] = test: Antibacterial activity against Escherichia coli assessed as zone of inhibition; assay type: functional
Klebsiella aerogenes = test: Antibacterial activity against Enterobacter aerogenes assessed as zone of inhibition; assay type: functional
Carbonic anhydrase 2 [30] = biological target: T1, Carbonic anhydrase 2 (Homo sapiens, UniProt P00918); test: Binding affinity to CA2 (unknown origin) assessed as inhibition constant
Carbonic anhydrase 2 [31] = biological target: T1, Carbonic anhydrase 2; test: Binding affinity to human CA2 in U2OS cells assessed as inhibition constant; assay type: cell-based
Bacillus cereus = test: Antibacterial activity against Bacillus cereus assessed as reduction in microbial growth measured after 24 hrs by Mueller-Hinton broth based two-fold serial dilution method; assay type: functional
Candida albicans [32] = test: Antibacterial activity against Candida albicans assessed as reduction in microbial growth measured after 24 hrs by Mueller-Hinton broth based two-fold serial dilution method; assay type: functional
Staphylococcus aureus [33] = test: Antibacterial activity against Staphylococcus aureus ATCC 25900 assessed as reduction in microbial growth measured after 24 hrs by Mueller-Hinton broth based two-fold serial dilution method; assay type: functional
Escherichia coli [34] = test: Antibacterial activity against Escherichia coli ATCC 25922 assessed as reduction in microbial growth measured after 24 hrs by Mueller-Hinton broth based two-fold serial dilution method; assay type: functional
Pseudomonas aeruginosa [35] = test: Antibacterial activity against Pseudomonas aeruginosa ATCC 27853 assessed as reduction in microbial growth measured after 24 hrs by Mueller-Hinton broth based two-fold serial dilution method; assay type: functional
Acinetobacter baumannii [36] = test: Antibacterial activity against Acinetobacter baumannii assessed as reduction in microbial growth measured after 24 hrs by Mueller-Hinton broth based two-fold serial dilution method; assay type: functional
[37] = Inhibition of Bordetella pertussis Adenylate cyclase toxin in mouse J774.A1 cells; assay type: cell-based
Staphylococcus aureus [38] = test: Antibacterial activity against methicillin-susceptible Staphylococcus aureus assessed as reduction in bacterial cell growth; assay type: functional

CCC(CP(=O)(O)C(C)N)C(=O)O (stereo not drawn)
Ki [1]: 90 nM

C=C(C/C=C(\C)CCC=C(C)C)CCC(C)(C)/C=C/CC/C(C)=C\CO[C@H](COP(=O)(O)O[C@H]1O[C@H](C(N)=O)[C@@](C)(O)[C@H](OC(N)=O)[C@H]1O[C@@H]1O[C@H](CO[C@@H]2O[C@H](CO)[C@@H](O)[C@H](O)[C@H]2O)[C@@H](O[C@@H]2O[C@H](C)[C@@H](O[C@@H]3O[C@H](C(=O)NC4=C(O)CCC4=O)[C@H](O)[C@H](O)[C@H]3O)[C@H](O)[C@H]2NC(C)=O)[C@H](O)[C@H]1NC(C)=O)C(=O)O
MIC (Neisseria gonorrhoeae): 0.004 µg/mL (≈ 0.00253 µM)

CS(=O)(=O)[O-].O=C(CCc1ccc(O)c(O)c1)NCCCCCCCCCC[P+](c1ccccc1)(c1ccccc1)c1ccccc1
MIC (Staphylococcus aureus [2]): 0.25 µg/mL

CC(C)OC(=O)[C@H](Cc1ccccc1)NP(=O)(COCCn1cnc2c(N)nc(F)nc21)N[C@@H](Cc1ccccc1)C(=O)OC(C)C
IC50 [3]: 145 nM

CCCCCCCCCC[P+](CCCCCC[P+](CCCCCCCCCC)(c1ccccc1)c1ccccc1)(c1ccccc1)c1ccccc1
IC50 (Acinetobacter baumannii [4]): 3000 nM

CCCCCC[P+](/C=C(\c1ccccc1)c1cc(Cl)ccc1O)(c1ccccc1OC)c1ccccc1OC
MIC (Staphylococcus aureus [5]): < 1 µM

Cc1ncc(C[n+]2csc(CCOP(=O)(O)CP(=O)(O)O)c2C)c(N)n1
Kd [6]: 20 nM

COP(=O)(CCSC(C)=O)NCc1ccccn1 (stereo not drawn)
IC50 [7]: 86000 nM

O=P(c1ccccc1)(c1ccccc1)C1CCC/C1=N\O (stereo not drawn)
MIC (Candida albicans [8]): 0.1 µg/mL (≈ 0.334 µM) | MIC (Nakaseomyces glabratus): 0.1 µg/mL (≈ 0.334 µM) | MIC (Staphylococcus aureus [9]): 0.1 µg/mL | MIC (Bacillus subtilis [10]): 0.1 µg/mL | MIC (Escherichia coli [11]): 0.1 µg/mL | MIC (Salmonella typhimurium): 0.1 µg/mL | MBC (Staphylococcus aureus [12]): 2 µg/mL (≈ 6.68 µM) | MBC (Bacillus subtilis [13]): 2 µg/mL (≈ 6.68 µM) | MBC (Escherichia coli [14]): 2 µg/mL (≈ 6.68 µM)

Cn1nccc1CP(=O)(Cc1ccnn1C)Cc1ccnn1C
MIC (Enterococcus durans): 0.15 µg/mL (≈ 0.451 µM) | MIC (Bacillus subtilis [15]): 0.15 µg/mL (≈ 0.451 µM) | MIC (Escherichia coli [16]): 0.15 µg/mL (≈ 0.451 µM) | MIC (Pseudomonas aeruginosa [17]): 0.15 µg/mL (≈ 0.451 µM)

CCCCCCCC(=O)OCOP(=O)(CCCC(=O)N(C)O)OCOC(=O)CCCCCCC
IC50 (Plasmodium falciparum): 50 nM

C[C@H](N)C(=O)N[C@@H](C)C(=O)N[C@@H](C)P(=O)(O)O
MIC90 (Klebsiella pneumoniae [18]): 4 µg/mL | MIC90 (Escherichia coli [19]): 0.25 µg/mL (≈ 0.936 µM) | MIC90 (Staphylococcus aureus [20]): 8 µg/mL (≈ 29.9 µM) | MIC90 (Enterococcus faecium): 2 µg/mL (≈ 7.48 µM) | MIC90 (Enterococcus faecalis [21]): 0.5 µg/mL (≈ 1.87 µM)

Cc1ncc(Cn2cc(CCOP(=O)(O)CP(=O)(O)O)nn2)c(N)n1
Kd [6]: 9 nM

CCCCc1nc(Cl)c(C(Nc2ccc(S(N)(=O)=O)cc2)P(=O)(OCC)OCC)n1Cc1ccc(Cl)cc1 (stereo not drawn)
MIC (Escherichia coli [22]): 2 µg/mL (≈ 3.31 µM) | MIC (Enterococcus faecalis [23]): 4 µg/mL (≈ 6.63 µM) | MIC (Staphylococcus aureus [24]): 4 µg/mL (≈ 6.63 µM) | MIC (Klebsiella pneumoniae [25]): 4 µg/mL (≈ 6.63 µM) | MIC (Pseudomonas aeruginosa [26]): 4 µg/mL (≈ 6.63 µM)

CCCCCCCCCCCC[P+](c1ccccc1)(c1ccccc1)c1ccccc1
MIC (Acinetobacter baumannii [27]): 6.25 µM

CN(C)CP(=O)(O)O
Ki [28]: 13000 nM

CCCCCCCC[P+](CCCC)(CCCCCCCC)CCCCCCCC.CS(=O)(=O)[O-]
inhibition zone (IZ) (Escherichia coli [29]): 14 mm | inhibition zone (IZ) (Klebsiella aerogenes): 14 mm

O/N=C1\CCCC1P(=S)(c1ccccc1)c1ccccc1 (stereo not drawn)
MIC (Candida albicans [8]): 0.1 µg/mL (≈ 0.317 µM) | MIC (Nakaseomyces glabratus): 0.1 µg/mL (≈ 0.317 µM) | MIC (Staphylococcus aureus [9]): 0.1 µg/mL | MIC (Bacillus subtilis [10]): 0.1 µg/mL | MIC (Escherichia coli [11]): 0.1 µg/mL | MIC (Salmonella typhimurium): 0.1 µg/mL | MBC (Staphylococcus aureus [12]): 2 µg/mL (≈ 6.34 µM) | MBC (Bacillus subtilis [13]): 2 µg/mL (≈ 6.34 µM) | MBC (Escherichia coli [14]): 2 µg/mL (≈ 6.34 µM)

COCCOP(N)(=O)c1ccccc1 (stereo not drawn)
Ki (Carbonic anhydrase 2 [30]): 20 nM | Ki (Carbonic anhydrase 2 [31]): 32800 nM

CCOP(=O)(OCC)C(Nc1ncc(-c2cc3ccccc3oc2=O)s1)c1ccccc1Br (stereo not drawn)
MIC (Bacillus cereus): 0.125 µg/mL | MIC (Candida albicans [32]): 0.125 µg/mL | MIC (Staphylococcus aureus [33]): 0.125 µg/mL | MIC (Escherichia coli [34]): 0.125 µg/mL | MIC (Pseudomonas aeruginosa [35]): 0.125 µg/mL | MIC (Acinetobacter baumannii [36]): 0.125 µg/mL

CN(C)CP(C)(=O)O [(DIMETHYLAMINO)METHYL(METHYL)PHOSPHINIC ACID]
Ki [28]: 620 nM

Nc1ncnc2c1ncn2CCOCP(=O)(O)OP(=O)(O)OP(=O)(O)O [ADEFOVIR DIPHOSPHATE]
IC50 [3]: 18 nM | IC50 [37]: 150 nM

CCCCCCCCCC[P+](C)(C)CCCCCCCCCC.[Cl-] [DIDECYLDIMETHYLPHOSPHONIUM CHLORIDE]
MIC (Staphylococcus aureus [38]): 0.78 µg/mL
